Drawing on US20240376094A2, “SELECTIVE BCL-XL PROTAC COMPOUNDS AND METHODS OF USE” (Les Laboratoires Servier, priority 2021, published 2024), this text covers DC50 and IC50 for nine compounds.

SMILES strings stand for the structures.

One may read the DC50 as the concentration giving 50% degradation. Read a high DC50 as a less potent degrader. As usually defined, the IC50 is the point on the concentration scale where inhibition reaches its midpoint. Lower therefore signals inhibition by little substance.

The target in assay [1] is T1, Bcl-xL (Homo sapiens, UniProt Q07817).
T1 construct: Measured levels of Bcl-xL protein of HCT116 cells treated with the tested compounds; host or cells: HCT116
As to the kind of experiment: HCT116 Bcl-xL degradation, capillary-based immunoassay (WES). The following applies: HCT116, 24 h, 9-point serial dilution. It is filed as cell-based. The procedure:
HCT116 cells were purchased from ATCC and cultivated in RPMI 1640 supplemented with 10% heat inactivated fetal bovine serum, penicillin (100 IU/mi), streptomycin (100 μg/ml) and L-glutamine (2 mM). Cells were cultured at 37° C. in a humidified atmosphere containing 5% CO2. Cells were seeded in 96 microwell plates, 24 h later cells were treated with compounds (2-point 10/100 nM and/or 9-point serial dilution to determine DC50; quadruplicates) during 24 h and harvested in lysis buffer containing 10 mM Hepes (pH 7.5), 150 mM KCl, 5 mM MgCl2, 1 mM EDTA, 0.4% TritonX100, protease and phosphatase inhibitors cocktails (Calbiochem).
Protein concentration in the supernatants was determined using the Pierce BCA protein assay kit (Thermo Fisher Scientific). Lysates (1.5 μg/μL) were analyzed using an automated capillary electrophoresis WES system with 2-40 kDa Wes Separation Module (25 capillary cartridges, Proteinsimple), in accordance with the manufacturer's protocols. Antibodies against the following proteins were used: Bcl-xL (#2764, Cell Signaling Technology, 1:50) and cofilin (#5175, Cell Signaling Technology, 1:1000). Signals were detected with an HRP-conjugated secondary anti-rabbit antibody (#042-206, Proteinsimple) and were quantified using Compass software (version 4.0, Proteinsimple).
Bcl-xL level was calculated by normalizing Bcl-xL values to cofilin and expressed as a percentage of the normalized value of the untreated cells. DC50 were calculated using standard four-parametric curve fitting. DC50 is defined as the compound concentration at which Bcl-xL is reduced to 50% of that measured for the control. Measured levels of Bcl-xL protein of HCT116 cells treated with the tested compounds at 2-point 10 nM/100 nM and/or 9-point for DC50 determination are shown in Table 15.

Assay [2] deals with MOLT-4 cells. As to the kind of experiment: MOLT-4 cell viability, CTG assay. It is filed as cell-based. The following applies: Homo sapiens, MOLT-4, 48 h. The text has this:
The MTT colorimetric assay is based on the mitochondrial reduction of tetrazolium salt by living cells. The viable cell number is proportional to the production of formazan salts, which can be read spectrophotometrically at 540 nm. The CTG luminescent assay (CellTiter GLO, Promega) is based on a reagent which lyses cells and measures total adenosine triphosphate (ATP) content. The viable cell number is proportional to the production of ATP.
MOLT-4 cells were purchased from ATCC and cultivated in RPMI 1640 supplemented with 10% heat inactivated fetal bovine serum, penicillin (100 IU/mi), streptomycin (100 μg/ml) and L-glutamine (2 mM). Cells were cultured at 37° C. in a humidified atmosphere containing 5% […].
For CTG assay, cells were seeded in 384 microwell plates (40 μL per well) and exposed to the compounds for 48 h (11-point serial dilution with 5-fold factor, triplicates). At the end of incubation time, 40 μL of CTG solution were added per well. Wells were mixed thoroughly, and plates were incubated at room temperature for 10 minutes to stabilize luminescent signals prior to reading using a luminescence reader (PHERAStar FSX Reader, BMG Labtech).
IC50, were calculated using standard four-parametric curve fitting. IC50 is defined as the compound concentration at which the MTT or CTG signal is reduced to 50% of that measured for the control. Results shown in Table 14 represent the mean of at least 2 independent experiments.

T1 sequence (Q07817 whole entry): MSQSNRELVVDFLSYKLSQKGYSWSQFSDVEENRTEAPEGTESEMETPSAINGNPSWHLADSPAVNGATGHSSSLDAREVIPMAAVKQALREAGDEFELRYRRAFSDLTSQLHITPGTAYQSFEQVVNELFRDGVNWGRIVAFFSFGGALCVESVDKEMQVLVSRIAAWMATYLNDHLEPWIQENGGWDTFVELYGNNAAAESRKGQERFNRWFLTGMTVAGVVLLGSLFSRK

Compound `Cc1c(Nc2nc3ccccc3s2)nnc2c1CCCN2c1ccc(-c2cnn(CC34CC5(C)CC(C)(C3)CC(OCCN(C)CCCCCCCCCCCCC(=O)N3CCC(c6ccc7c(c6)CN(C6CCC(=O)NC6=O)C7=O)CC3)(C5)C4)c2C)c(C(=O)O)n1` (stereo not drawn) [Example 78, 6-[3-(1,3-benzothiazol-2-ylamino)-4-methyl-6,7-dihydro-5H-pyrido[2,3-c]pyridazin-8-yl]-3-[1-[[3-[2-[[13-[4-[2-(2,6-dioxo-3-piperidyl)-1-oxo-isoindolin-5-yl]-1-piperidyl]-13-oxo-tridecyl]-methyl-amino]ethoxy]-5,7-dimethyl-1-adamantyl]methyl]-5-methyl-pyrazol-4-yl]pyridine-2-carboxylic acid] yielded a DC50 in assay [1] of 0.121 nM. In addition, in assay [2], it took 4.42 nM to reach half-maximal inhibition (IC50).

In assay [1], `Cc1cc(N(CCCCN(C)C(=O)CCCCCCCCCNc2cccc3c2C(=O)N(C2CCC(=O)NC2=O)C3=O)c2ccc(-c3cnn(CC45CC6(C)CC(C)(C4)CC(OCCN(C)C)(C6)C5)c3C)c(C(=O)O)n2)nnc1Nc1nc2ccccc2s1` (stereo not drawn) [Example 92, 6-[[6-(1,3-benzothiazol-2-ylamino)-5-methyl-pyridazin-3-yl]-[4-[10-[[2-(2,6-dioxo-3-piperidyl)-1,3-dioxo-isoindolin-4-yl]amino]decanoyl-methyl-amino]butyl]amino]-3-[1-[[3-[2-(dimethylamino)ethoxy]-5,7-dimethyl-1-adamantyl]methyl]-5-methyl-pyrazol-4-yl]pyridine-2-carboxylic acid] showed a DC50 of 0.954 nM. Besides, the IC50 in assay [2] is 14.9 nM.

`CN[C@@H](C)C(=O)N[C@H](C(=O)N1CCC[C@H]1c1nc(C(=O)c2cccc(OCCN(C)CCOC34CC5(C)CC(C)(CC(Cn6ncc(-c7ccc(N8CCCc9c8nnc(Nc8nc%10ccccc%10s8)c9C)nc7C(=O)O)c6C)(C5)C3)C4)c2)cs1)C1CCCCC1` [Example 101, 6-[3-(1,3-benzothiazol-2-ylamino)-4-methyl-6,7-dihydro-5H-pyrido[2,3-c]pyridazin-8-yl]-3-[1-[[3-[2-[2-[3-[2-[(2S)-1-[(2S)-2-cyclohexyl-2-[[(2S)-2-(methylamino)propanoyl]amino]acetyl]pyrrolidin-2-yl]thiazole-4-carbonyl]phenoxy]ethyl-methyl-amino]ethoxy]-5,7-dimethyl-1-adamantyl]methyl]-5-methyl-pyrazol-4-yl]pyridine-2-carboxylic acid] had a half-maximal degradation concentration (DC50) in assay [1] of 0.612 nM. Moreover, the IC50 in assay [2] stood at 7.68 nM.

As for `Cc1c(Nc2nc3ccccc3s2)nnc2c1CCCN2c1nc(C(=O)O)c(CCCOc2ccc(C#CCN3CCN(C(=O)CCCC(=O)NCCOCCNC(=O)COc4cccc5c4C(=O)N(C4CCC(=O)NC4=O)C5=O)CC3)cc2F)s1` (stereo not drawn) [Example 174, 2-[3-(1,3-benzothiazol-2-ylamino)-4-methyl-6,7-dihydro-5H-pyrido[2,3-c]pyridazin-8-yl]-5-[3-[4-[3-[4-[5-[2-[2-[[2-[2-(2,6-dioxo-3-piperidyl)-1,3-dioxo-isoindolin-4-yl]oxyacetyl]amino]ethoxy]ethylamino]-5-oxo-pentanoyl]piperazin-1-yl]prop-1-ynyl]-2-fluoro-phenoxy]propyl]thiazole-4-carboxylic acid], the DC50 in assay [1] is above 316 nM. Moreover, the half-maximal inhibitory concentration (IC50) in assay [2] came out at 26 nM.

Take `Cc1c(Nc2nc3ccccc3s2)nnc2c1CCCN2c1ccc(-c2cnn(CC34CC5(C)CC(C)(C3)CC(OCCN(C)CCCCCCCCCCCCCOc3ccc6c(c3)C(=O)N(C3CCC(=O)NC3=O)C6=O)(C5)C4)c2C)c(C(=O)O)n1` (stereo not drawn) [Example 115, 6-[3-(1,3-benzothiazol-2-ylamino)-4-methyl-6,7-dihydro-5H-pyrido[2,3-c]pyridazin-8-yl]-3-[1-[[3-[2-[13-[2-(2,6-dioxo-3-piperidyl)-1,3-dioxo-isoindolin-5-yl]oxytridecyl-methyl-amino]ethoxy]-5,7-dimethyl-1-adamantyl]methyl]-5-methyl-pyrazol-4-yl]pyridine-2-carboxylic acid]: the DC50 in assay [1] turned out to be 0.266 nM. In addition, the midpoint of inhibition in assay [2], the IC50, lay at 3.93 nM.

Consider `CN[C@@H](C)C(=O)N[C@H](C(=O)N1CCC[C@H]1c1nc(C(=O)c2cccc(OCCCCCCCCCCN(C)CCOC34CC5(C)CC(C)(CC(Cn6ncc(-c7ccc(N8CCCc9c8nnc(Nc8nc%10ccccc%10s8)c9C)nc7C(=O)O)c6C)(C5)C3)C4)c2)cs1)C1CCCCC1` [Example 98, 6-[3-(1,3-benzothiazol-2-ylamino)-4-methyl-6,7-dihydro-5H-pyrido[2,3-c]pyridazin-8-yl]-3-[1-[[3-[2-[10-[3-[2-[(2S)-1-[(2S)-2-cyclohexyl-2-[[(2S)-2-(methylamino)propanoyl]amino]acetyl]pyrrolidin-2-yl]thiazole-4-carbonyl]phenoxy]decyl-methyl-amino]ethoxy]-5,7-dimethyl-1-adamantyl]methyl]-5-methyl-pyrazol-4-yl]pyridine-2-carboxylic acid], for which the DC50 in assay [1] came out at 0.362 nM. The compound also registered an IC50 in assay [2] of 4.74 nM.

`Cc1c(Nc2nc3ccccc3s2)nnc2c1CCCN2c1ccc(-c2cnn(CC34CC5(C)CC(C)(C3)CC(OCCN(C)CCCCCOc3ccc6c(c3)C(=O)N(C3CCC(=O)NC3=O)C6=O)(C5)C4)c2C)c(C(=O)O)n1` (stereo not drawn) [Example 107, 6-[3-(1,3-benzothiazol-2-ylamino)-4-methyl-6,7-dihydro-5H-pyrido[2,3-c]pyridazin-8-yl]-3-[1-[[3-[2-[5-[2-(2,6-dioxo-3-piperidyl)-1,3-dioxo-isoindolin-5-yl]oxypentyl-methyl-amino]ethoxy]-5,7-dimethyl-1-adamantyl]methyl]-5-methyl-pyrazol-4-yl]pyridine-2-carboxylic acid]: in assay [1], the DC50 was 0.739 nM. The compound also had an IC50 in assay [2] of 4.72 nM.

Take `Cc1c(Nc2nc3ccccc3s2)nnc2c1CCCN2c1ccc(-c2cnn(CC34CC5(C)CC(C)(C3)CC(OCCN(C)CCCCCCCCCCCOc3ccc6c(c3)C(=O)N(C3CCC(=O)NC3=O)C6=O)(C5)C4)c2C)c(C(=O)O)n1` (stereo not drawn) [Example 105, 6-[3-(1,3-benzothiazol-2-ylamino)-4-methyl-6,7-dihydro-5H-pyrido[2,3-c]pyridazin-8-yl]-3-[1-[[3-[2-[11-[2-(2,6-dioxo-3-piperidyl)-1,3-dioxo-isoindolin-5-yl]oxyundecyl-methyl-amino]ethoxy]-5,7-dimethyl-1-adamantyl]methyl]-5-methyl-pyrazol-4-yl]pyridine-2-carboxylic acid]: the DC50 in assay [1] amounted to 0.0447 nM. Moreover, the IC50 in assay [2] is 1.75 nM.

With `CN[C@@H](C)C(=O)N[C@H](C(=O)N1CCC[C@H]1c1nc(C(=O)c2cccc(OCCCCCCN(C)CCOC34CC5(C)CC(C)(CC(Cn6ncc(-c7ccc(N8CCCc9c8nnc(Nc8nc%10ccccc%10s8)c9C)nc7C(=O)O)c6C)(C5)C3)C4)c2)cs1)C1CCCCC1` [Example 102, 6-[3-(1,3-benzothiazol-2-ylamino)-4-methyl-6,7-dihydro-5H-pyrido[2,3-c]pyridazin-8-yl]-3-[1-[[3-[2-[6-[3-[2-[(2S)-1-[(2S)-2-cyclohexyl-2-[[(2S)-2-(methylamino)propanoyl]amino]acetyl]pyrrolidin-2-yl]thiazole-4-carbonyl]phenoxy]hexyl-methyl-amino]ethoxy]-5,7-dimethyl-1-adamantyl]methyl]-5-methyl-pyrazol-4-yl]pyridine-2-carboxylic acid], the DC50 in assay [1] is 0.448 nM. Half-maximal inhibition in assay [2] (IC50) was put at 4.07 nM.
